From ChEMBL document CHEMBL1201862, “PubChem BioAssay data set” (2004)
Active and inactive are the calls of the source.

What was measured:
[1] = reduction of Shn3 3'UTR-driven luciferase in osteoblasts – cell-based, Clone20 osteoblasts, firefly luciferase, cherry-picked, dose response (AID 624132); assay type: functional;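 further: firefly luciferase luminescence from reporter carrying the Shn3 3'UTR in osteoblasts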
A-375 [2] = experiment: proliferation inhibition in MITF-low A375 cells – cell-based, cherry-pick samples, set 2, counter-screen for MITF modulator project, dose response (AID 540335); assay type: functional; details: Homo sapiens
[3] = Trypanosoma cruzi growth suppression in host cells – NIH3T3 host cells, beta-gal luminescence, confirmation (AID 2044); assay type: functional, cell-based;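 further: intracellular parasites grown in NIH/3T3 mouse fibroblasts as host cells; luminescent beta-galactosidase reporter signal from transgenic T. cruzi replicating inside host cells; inhibitors lower the luminescence signal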
[4] = non-specific 3'UTR reporter inhibition in Clone20-Shn3RL – cell-based, Renilla luciferase, cherry-picked, counter-screen for Shn3 inhibitor project, dose response (AID 624133); assay type: functional
[5] = decrease of insulin promoter-GFP reporter – imaging, high-content screening, mouse beta cells (AID 1628); assay type: functional; details: MIN6
[6] = viability of HCT116 lacking mutant beta-catenin – cell-based, human colon tumor, dose response (AID 1045); assay type: functional;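 further: HCT116 colon tumor cells with beta catenin knocked out; cells exposed to compound for 60 hours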
[7] = MIN6 cell viability loss – mouse insulinoma, cytotoxicity control, dose response (AID 2122); assay type: functional;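 further: confirmatory high-throughput counterscreen run to flag cytotoxic compounds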
[8] = molecular target: T1, Microphthalmia-associated transcription factor (Homo sapiens, UniProt O75030); experiment: reducers of TRPM1 reporter luminescence, concentration series – cell-based, SK-MEL-5, cherry-picked, set 3, MITF inhibitor project, dose response (AID 493073); assay type: functional;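 further: SK-MEL-5 melanoma cells with luciferase driven by the MITF target TRPM1 promoter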
T1 sequence (O75030 whole entry): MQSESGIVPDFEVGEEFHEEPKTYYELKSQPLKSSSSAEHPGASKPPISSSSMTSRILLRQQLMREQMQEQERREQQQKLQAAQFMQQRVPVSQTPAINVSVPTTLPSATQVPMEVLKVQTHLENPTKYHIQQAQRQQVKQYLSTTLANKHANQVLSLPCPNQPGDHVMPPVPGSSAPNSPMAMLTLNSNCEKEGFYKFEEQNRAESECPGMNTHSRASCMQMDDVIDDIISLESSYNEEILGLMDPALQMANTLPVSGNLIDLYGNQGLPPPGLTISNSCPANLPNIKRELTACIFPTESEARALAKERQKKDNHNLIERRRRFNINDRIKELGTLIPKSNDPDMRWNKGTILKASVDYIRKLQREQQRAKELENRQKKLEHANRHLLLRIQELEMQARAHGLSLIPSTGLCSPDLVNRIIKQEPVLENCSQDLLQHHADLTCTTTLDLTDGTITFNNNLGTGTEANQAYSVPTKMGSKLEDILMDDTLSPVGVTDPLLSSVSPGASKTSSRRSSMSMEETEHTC

[9] = NIH3T3 cell viability loss – ATP luminescence, mouse fibroblasts, counter-screen, dose response (AID 2010); assay type: functional, cell-based;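 further: cells exposed to compound for about 90 hours before reading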
A-375 [10] = experiment: MITF: Counter assay: A375 proliferation Measured in Cell-Based System Using Plate Reader - 2084-03_Inhibitor_Dose_DryPowder_Activity. [Related pubchem assays (depositor defined):AID488944]; assay type: functional; details: Homo sapiens
[11] = viability of PTEN-deleted HCT116 cells – cell-based, HCT116 PTEN knockout, dose response (AID 1047); assay type: functional;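 further: HCT116 colon tumor cells with PTEN knocked out; cells exposed to compound for 60 hours before readout; potency for loss of cell viability measured by luminescence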
[12] = loss of viability in HepG2 cells – cell-based, CellTiter-Glo, cherry-picked, cytotoxicity control for Shn3 inhibitor project, dose response (AID 624134); assay type: functional
[13] = blockers of HIV-1 envelope-mediated cell-cell fusion – cherry-pick, dose response (AID 652057); assay type: functional, cell-based
[14] = HIV-1 AD8 envelope cell-cell fusion blockers – cherry-pick, dose response (AID 652062); assay type: functional, cell-based;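 further: luciferase signal from cell-cell fusion driven by HIV-1 clade B AD8 Env; potency is for inhibitors of fusion seen as a drop in luminescence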
[15] = off-target signal loss in HeLa-CEM21 co-culture – HeLa F-luc CTL cells, cherry-picked, counter-screen for HIV-1 Env fusion inhibitor project, dose response (AID 652040); assay type: functional, cell-based;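 further: potency for signal decrease marking cytotoxic or nonspecific inhibition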
[16] = blockers of HIV-1 ZM109 envelope-driven cell-cell fusion – HeLa effector, CEM target cells, luciferase, cherry-pick, dose response (AID 652058); assay type: functional, cell-based;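 further: luciferase signal from HIV-1 Env mediated cell-cell fusion of effector and target cells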
HEK293 [17] = experiment: cells; details: Homo sapiens
HEK293 [18] = experiment: cells; details: Homo sapiens; remark: listed apart in the source
[19] = viability loss in CEM21 cells – cell-based, CellTiter-Glo luminescence, cherry-picked, cytotoxicity control for viral fusion inhibitor project, dose response (AID 652042); assay type: functional;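 further: potency for signal decrease meaning cytotoxicity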
[20] = A549 cell cytotoxicity, dose response, cytotoxicity control, plate reader, cherry-pick, antagonist series (AID 743412); assay type: functional, cell-based
[21] = blockade of melanocortin 4 receptor signaling – cell-based, plate reader, cherry pick, counter-screen for LGR2 antagonist project, dose response (AID 743444); assay type: functional;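 further: transfected HEK 293 cells stimulated with alpha-MSH peptide; potency of inhibitors of the alpha-MSH evoked signal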
Paired box protein Pax-8 = Paired box protein Pax-8 (Homo sapiens, UniProt Q06710); experiment: PAX8 transcriptional activity inhibition in RMG-I – RMG-I cells, luciferase, cherry-pick, dose response (AID 687027); assay type: functional, cell-based;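 further: luciferase reporter driven by Pax8 target thyroperoxidase promoter measured by SteadyGlo luminescence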
[22] = blockers of bursicon-stimulated LGR2 cAMP reporter – cell-based, HEK293, CRE-luciferase reporter, cherry pick, set 2, dose response (AID 743343); assay type: functional;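 further: transfected cells were stimulated with diluted bursicon conditioned medium after compound addition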
[23] = HEK-293T viability loss, compound-treated – cell-based, uHTS hits, cytotoxicity control for B/T-cell NF-kB inhibitor project, dose response (AID 489019); assay type: functional;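 further: IC50 reflects cytotoxicity as loss of cell viability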
[24] = toxicity toward HepG2 liver cells – cell-based, plate reader, cherry-pick, antagonist series, cytotoxicity control, dose response (AID 743416); assay type: functional
Jurkat = experiment: blockers of NF-kB activation in T cells – Jurkat, luciferase reporter, luminescence, B- and T-cell, dose response (AID 489004); assay type: functional, cell-based; details: Homo sapiens;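 further: NF-kB luciferase reporter Jurkat cells stimulated with PMA plus ionomycin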
cells = assay type: functional, cell-based; details: HEK-CNG
Galanin receptor type 3 = molecular target: T2, Galanin receptor type 3 (Homo sapiens, UniProt O60755); experiment: Fluorescence-based cell-based primary high throughput dose response assay to identify antagonists of the Galanin Receptor 3 (GalR3).; assay type: functional
T2 sequence (O60755 whole entry): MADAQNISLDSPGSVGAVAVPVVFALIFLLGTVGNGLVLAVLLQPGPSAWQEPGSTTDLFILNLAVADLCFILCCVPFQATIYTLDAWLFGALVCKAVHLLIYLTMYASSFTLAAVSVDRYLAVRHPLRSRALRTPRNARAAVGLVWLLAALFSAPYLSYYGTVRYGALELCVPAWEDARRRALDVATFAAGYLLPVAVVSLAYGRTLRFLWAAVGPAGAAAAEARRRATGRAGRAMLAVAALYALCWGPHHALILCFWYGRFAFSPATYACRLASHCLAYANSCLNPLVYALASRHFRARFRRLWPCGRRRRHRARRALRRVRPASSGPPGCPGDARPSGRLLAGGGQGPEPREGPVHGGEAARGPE

Sequence of Paired box protein Pax-8 (Q06710 whole entry): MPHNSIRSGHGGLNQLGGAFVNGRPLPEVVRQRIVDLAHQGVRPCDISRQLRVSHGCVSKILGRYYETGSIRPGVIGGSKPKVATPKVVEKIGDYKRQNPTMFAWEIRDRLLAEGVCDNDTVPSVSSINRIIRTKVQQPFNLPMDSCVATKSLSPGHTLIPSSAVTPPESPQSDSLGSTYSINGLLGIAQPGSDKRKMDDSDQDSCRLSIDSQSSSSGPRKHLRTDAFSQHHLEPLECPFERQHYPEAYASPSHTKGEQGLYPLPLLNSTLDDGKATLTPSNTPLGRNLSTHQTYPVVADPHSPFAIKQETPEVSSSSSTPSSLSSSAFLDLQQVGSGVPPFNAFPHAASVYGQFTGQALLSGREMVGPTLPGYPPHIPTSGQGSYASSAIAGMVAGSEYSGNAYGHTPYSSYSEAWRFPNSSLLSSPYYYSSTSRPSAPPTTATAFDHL

Q: With O=C(c1ccc(F)cc1)C(CN1CCOCC1)c1ccccc1 (stereo unspecified) as the compound, how does the AC50 [1] read?
A: 17.6 µM (active)

Q: What about the AC50 (A-375 [2]) of the same compound?
A: > 35 µM (active)

Q: What about the EC50 [3] of the same compound?
A: 4.06 µM (active)

Q: What about the AC50 [4] of the same compound?
A: 6.91 µM (active)

Q: And the IC50 [5]?
A: 4.17 µM (active)

Q: What about the EC50 [6] of the same compound?
A: 2.42 µM (active)

Q: What about the IC50 [7] of the same compound?
A: 3.27 µM (active)

Q: And the AC50 [8]?
A: 5.96 µM (active)

Q: What about the EC50 [9] of the same compound?
A: 10.9 µM (active)

Q: And the AC50 (A-375 [10])?
A: > 35 µM (active)

Q: What about the EC50 [11] of the same compound?
A: 3.36 µM (active)

Q: What about the AC50 [12] of the same compound?
A: 19.4 µM (active)

Q: Which AC50 [13] does the source give for COc1ccc(CCN2C(=O)c3[nH]nc(-c4ccccc4O)c3C2c2ccccc2)cc1OC (stereo unspecified) here?
A: 0.376 µM (active)

Q: What about the AC50 [14] of the same compound?
A: 0.621 µM (active)

Q: What about the AC50 [15] of the same compound?
A: 0.929 µM (active)

Q: And the AC50 [16]?
A: 0.625 µM (active)

Q: And the EC50 (HEK293 [17])?
A: > 59.7 µM (inactive)

Q: And the EC50 (HEK293 [18])?
A: > 59.7 µM (inactive)

Q: And the AC50 [19]?
A: 52.7 µM (active)

Q: For COc1ccc(C(=O)CN2C(=O)c3ccccc3S2(=O)=O)cc1, which AC50 [13] is on record?
A: 1.07 µM (active)

Q: And the AC50 [20]?
A: > 52 µM (inactive)

Q: What about the AC50 [21] of the same compound?
A: 0.691 µM (active)

Q: What about the AC50 [14] of the same compound?
A: 2.54 µM (active)

Q: And the AC50 (Paired box protein Pax-8)?
A: 3.53 µM (active)

Q: And the AC50 [15]?
A: 2.16 µM (active)

Q: What about the AC50 [16] of the same compound?
A: 10.7 µM (active)

Q: What about the AC50 [22] of the same compound?
A: 0.675 µM (active)

Q: What about the IC50 [23] of the same compound?
A: > 80 µM (inactive)

Q: What about the AC50 [24] of the same compound?
A: > 52 µM (inactive)

Q: And the IC50 (Jurkat)?
A: 1.08 µM (active)

Q: Which AC50 [1] does the source give for CC(=O)c1cn(Cc2ccccc2C#N)c2ccccc12 here?
A: 0.527 µM (active)

Q: What about the AC50 [4] of the same compound?
A: 4.28 µM (active)

Q: And the IC50 [5]?
A: 1.01 µM (active)

Q: What about the IC50 [7] of the same compound?
A: 0.64 µM (active)

Q: And the IC50 [23]?
A: > 80 µM (inactive)

Q: What about the EC50 (cells) of the same compound?
A: > 29.9 µM (inactive)

Q: And the IC50 (Jurkat)?
A: 30 µM (inactive)

Q: And the AC50 [12]?
A: 2.2 µM (active)

Q: What about the IC50 (Galanin receptor type 3) of the same compound?
A: 3.07 µM (active)

Q: Which EC50 (HEK293 [17]) does the source give for COc1ccc(OC)c(-c2cc(C(=O)Nc3c(C)nn(Cc4ccccc4)c3C)no2)c1 here?
A: > 59.6 µM (inactive)

Q: What about the EC50 (HEK293 [18]) of the same compound?
A: > 59.6 µM (inactive)
